Data reported in paper PMC8402032, “Unsymmetric Cisplatin-Based Pt(IV) Conjugates Containing a PARP-1 Inhibitor Pharmacophore Tested on Malignant Pleural Mesothelioma Cell Lines” (Molecules, 2021).

Assays:
[1] = Lipophilicity by RP-HPLC (log k′); assay type: physicochemical; details: RP-HPLC C18, 15 mM formic acid/CH3OH 30/70
Description: Since it has been reported that Pt(IV) complexes enter cells by passive diffusion only, with a few exceptions, the evaluation of lipophilicity is key because it is related to the ability of a molecule to passively cross cellular membranes. RP-HPLC techniques are often used to measure the lipophilicity of a compound, since the retention is due to partitioning between the C18 chains of the stationary phase (representing the cellular membrane) and the aqueous eluent (representing the water inside and outside cells). For this purpose, the retention times (tR) of the complexes were transformed as log k′, where k′ = (tR − t0)/t0) and t0 is the column dead-time (Table 1).
RP-HPLC was used to evaluate the capacity factors of the compounds as reported elsewhere. Briefly, a chromatogram for each Pt complex (0.5 mM) was run on a C18 column Phenosphere-NEXT (5-μm, 250 × 4.6 mm ID) with an eluant composition of 15 mM formic acid/CH3OH 30/70 and a flow rate of 0.5 mL min^−1. The corresponding retention time tR was used to calculate log k′, where k′ = (tR − t0)/t0. The dead time of the column t0 was the tR of KCl, added as unretained internal reference.

[2] = tested on: MSTO-211H (biphasic phenotype) malignant pleural mesothelioma cells; experiment: Cell viability assay (Trypan blue dye exclusion), MSTO-211H; assay type: cell-based, human; details: 72 h treatment
Description: (§1) Complexes 6–9 were tested on a panel of human MPM cell lines together with CDDP and SAA1, added for comparison (Table 1). The half-maximal inhibitory concentration, IC50, was determined on MSTO-211H (biphasic phenotype), REN (epithelioid), BR95 (epithelioid), and MM98 (sarcomatoid) cancer cell lines to identify the most promising Pt(IV) conjugate to be further investigated. To determine the number of viable cells, the use of the dye exclusion assay was preferred to the colorimetric assay because of the heterogeneity in the energy metabolism between the different MPM cell lines. This may justify minor differences with respect to the previously published IC50 for CDDP [40].
Cells were seeded at a density of 10 × 10^4 cells per well in 6-well plates in RPMI medium supplemented with 10% fetal bovine serum (FBS), 100 μg mL^−1 streptomycin, and 10 μg mL^−1 penicillin and incubated overnight at 37 °C in a humidified environment containing 5% CO2 to allow adherence. Cisplatin was dissolved in 0.9% w/v aqueous NaCl brought to pH = 3 with HCl (final stock concentration 1 mM). The Pt(IV) complexes were dissolved in DMSO (final stock concentration 5 mM); the resulting solutions were microfiltered (0.45 μm) and their Pt content was checked by ICP-MS (see Section 3.5.2). These mother solutions were diluted in complete medium to the required concentration range.
(§2) Following 72 h of treatment with the diluent of the compound (Ctrl) or different doses of the Pt compounds, cells were trypsinized and stained with Trypan blue. The number of cells considered viable (unstained cells) was counted in a Bürker haemocytometer within 5 min after staining.

MSTO-211H cells = experiment: Cell uptake (intracellular Pt by ICP-MS); assay type: cell-based, human; details: 10 μM, 4 h treatment, mean ± sd
Description: Cellular accumulation of compounds 6–9 was evaluated by means of the intracellular Pt uptake after 4 h treatment of MSTO-211H cells and expressed as ng Pt per 10^6 cells (Table 1). As expected, the Fmoc protection of 6 and 7 enhances the lipophilicity of the complexes, facilitating their cell uptake. Also the elongation of the organic linker from -(CH2)2- to -(CH2)6- increases (to a minor extent) the lipophilicity in 7 and 9 with respect to 6 and 8.
MSTO-211H cells were seeded in […] Petri dishes and challenged with the compounds and mixtures under investigations (10 μM) in complete medium. At the end of the exposure, cells were washed three times with phosphate buffered saline (PBS) and detached from the Petri dishes using 0.05% Trypsin 1X + 2% EDTA (HyClone, Thermo Fisher). The cells were harvested in fresh complete medium and an automatic cell counting device (Countess®, Life Technologies, Carlsbad, CA, USA) was used to measure the number and the mean diameter from every cell count. The harvested cells were transferred into a borosilicate glass tube and centrifuged at 1100× g rpm for 5 min at room temperature. The supernatant was carefully removed by aspiration, but about 200 μL of the supernatant was left in order to limit the cellular loss. Finally, the cellular pellets were stored at −80 °C. Platinum content determination was performed by ICP-MS (Thermo Optek X Series 2). Complete mineralization was obtained by the addition of 70% w/w HNO3 to each sample (after defrosting), followed by incubation for 1 h at 60 °C in an ultrasonic bath. Before the ICP-MS measurement, the HNO3 was diluted to a final 1% concentration. The instrumental settings were optimized to yield maximum sensitivity for platinum, and the most abundant isotopes of Pt (m/z = 195) and In (m/z = 115, used as internal standard) were quantified. The level of Pt found in cells after the treatment was normalized to the cell number and expressed as ng of Pt per 10^6 cells.

[3] = tested on: MSTO-211H multicellular spheroids (MCS); experiment: Apoptosis in MSTO-211H multicellular spheroids; assay type: cell-based, human; details: MSTO-211H MCS, 10 μM, 72 h; spheroid morphology, PARP-1 cleavage, BIM and PUMA induction
Description: The capability of compound 6 to induce apoptosis was confirmed also when MSTO-211H cells were cultured as multicellular spheroids (MCSs). MCSs and other similar 3D cultures represent an improvement of classical 2D conditions, having a more complex architectural structure and better bio-mimicking of the in vivo microenvironment. Although they suffer many of the limitations of the 2D cultures, they are a powerful tool to narrow down the gap between the in vitro and in vivo models.
Multicellular spheroids were generated in non-adsorbent round-bottomed 96-well plates, as previously described. The 96-well plates were coated with a 1:24 dilution of polyHEMA (120 mg mL^−1) in 95% ethanol and dried at 37 °C for 24 h. Before use, plates were sterilized by UV light for 30 min. For generation of multicellular spheroids, 1 × 10^4 cells were added into each well of a polyHEMA-coated 96-well plate and placed in a 37 °C humidified incubator with 5% CO2. Every 24 h, 50% of supernatant was replaced with fresh medium.
Figure 5 Compound 6 induces apoptosis in MSTO-211H multicellular spheroids (MCS). (A) Representative microscope images of MCS treated for 72 h with diluent (Ctrl) or 10 μM 6. Scale bar = 100 μm. (B) Representative Western blot showing PARP-1 cleavage in MSTO-211H MCS treated with 6. Tubulin was used as loading control. […]

human MPM cell lines = experiment: Antiproliferative activity on the panel of human MPM cell lines (summary); assay type: cell-based
Description: as §1
Cells were seeded at a density of 10 × 10^4 cells per well in 6-well plates in RPMI medium supplemented with 10% fetal bovine serum (FBS), 100 μg mL^−1 streptomycin, and 10 μg mL^−1 penicillin and incubated overnight at 37 °C in a humidified environment containing 5% CO2 to allow adherence. Cisplatin was dissolved in 0.9% w/v aqueous NaCl brought to pH = 3 with HCl (final stock concentration 1 mM). […]
as §2

## CC(=O)[O][Pt]([NH2])([NH2])([Cl])([Cl])[O]C(=O)CCNC(=O)c1cccc(NC(=O)OCC2c3ccccc3-c3ccccc32)c1 [Compound 6, (OC-6-44)-Acetato[3-(3-(fmoc-amino)-benzamido)-propanoato]-diammine-dichlorido-platinum(IV)]
[1]
  Log k′: 4.22
[2]
  ratio IC50 (cisplatin)/IC50 (Pt(IV) complex), MSTO-211H: 1.6
[2]; mean ± sd, read-out: IC50 MSTO-211H
  IC50: 690 ± 30 nM
MSTO-211H cells
  Pt Uptake: 10.64 ± 1.77 ng Pt per 10^6 Cells
[3]
  apoptosis in multicellular spheroids: apoptotic death was evidenced
Human MPM cell lines
  ratio between the IC50 of CDDP and the IC50 of the Pt(IV) complex, all cell lines: around 2
